In ChEMBL document CHEMBL3991601, “The target landscape of clinical kinase drugs” (Science, 2017):
Calls of active or inactive are those of the source.

Experiments:
Activin receptor type-1B = molecular target: T1, Activin receptor type-1B (Homo sapiens, UniProt P36896)
T1 sequence (P36896 whole entry): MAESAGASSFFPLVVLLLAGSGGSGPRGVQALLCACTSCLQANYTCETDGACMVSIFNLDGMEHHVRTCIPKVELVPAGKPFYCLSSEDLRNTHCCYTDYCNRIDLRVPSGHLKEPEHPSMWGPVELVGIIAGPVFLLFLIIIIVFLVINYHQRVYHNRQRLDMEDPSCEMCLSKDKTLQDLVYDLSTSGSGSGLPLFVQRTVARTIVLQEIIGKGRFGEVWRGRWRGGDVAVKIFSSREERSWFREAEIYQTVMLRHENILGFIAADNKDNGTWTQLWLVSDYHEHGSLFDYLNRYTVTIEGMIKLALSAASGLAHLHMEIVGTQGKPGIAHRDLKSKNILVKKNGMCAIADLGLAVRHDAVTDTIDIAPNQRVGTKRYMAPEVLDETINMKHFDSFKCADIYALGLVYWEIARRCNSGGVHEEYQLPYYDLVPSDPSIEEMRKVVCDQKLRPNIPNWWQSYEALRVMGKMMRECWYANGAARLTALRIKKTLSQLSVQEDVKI

[1] = molecular target: RAC-gamma serine/threonine-protein kinase (Homo sapiens, UniProt Q9Y243)
[2] = molecular target: Tyrosine-protein kinase CSK (Homo sapiens, UniProt P41240)
[3] = molecular target: Casein kinase I isoform delta (Homo sapiens, UniProt P48730)
Ephrin type-A receptor 2 = Ephrin type-A receptor 2 (Homo sapiens, UniProt P29317)
[4] = molecular target: Myosin light chain kinase, smooth muscle (Homo sapiens, UniProt Q15746)
[5] = molecular target: T2, NUAK family SNF1-like kinase 2 (Homo sapiens, UniProt Q9H093)
T2 sequence (Q9H093 whole entry): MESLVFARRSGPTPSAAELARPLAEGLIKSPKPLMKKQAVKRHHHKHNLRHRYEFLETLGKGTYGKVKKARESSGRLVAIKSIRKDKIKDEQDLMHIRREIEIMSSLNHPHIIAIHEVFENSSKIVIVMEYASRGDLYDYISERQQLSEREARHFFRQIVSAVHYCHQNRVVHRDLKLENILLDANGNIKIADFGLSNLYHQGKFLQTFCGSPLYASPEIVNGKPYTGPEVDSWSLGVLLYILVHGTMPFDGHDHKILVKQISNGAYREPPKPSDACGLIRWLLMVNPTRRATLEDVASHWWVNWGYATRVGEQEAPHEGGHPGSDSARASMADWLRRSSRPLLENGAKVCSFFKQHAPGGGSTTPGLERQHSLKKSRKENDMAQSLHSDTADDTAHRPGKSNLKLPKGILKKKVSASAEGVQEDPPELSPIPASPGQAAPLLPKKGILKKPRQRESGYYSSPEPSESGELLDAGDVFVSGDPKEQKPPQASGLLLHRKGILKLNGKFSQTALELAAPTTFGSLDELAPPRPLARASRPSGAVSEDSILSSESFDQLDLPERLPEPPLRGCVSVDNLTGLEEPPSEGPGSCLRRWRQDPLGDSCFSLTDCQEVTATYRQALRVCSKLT

[6] = molecular target: T3, Bifunctional phosphoribosylaminoimidazole carboxylase/phosphoribosylaminoimidazole succinocarboxamide synthetase (Homo sapiens, UniProt P22234)
T3 sequence (P22234 whole entry): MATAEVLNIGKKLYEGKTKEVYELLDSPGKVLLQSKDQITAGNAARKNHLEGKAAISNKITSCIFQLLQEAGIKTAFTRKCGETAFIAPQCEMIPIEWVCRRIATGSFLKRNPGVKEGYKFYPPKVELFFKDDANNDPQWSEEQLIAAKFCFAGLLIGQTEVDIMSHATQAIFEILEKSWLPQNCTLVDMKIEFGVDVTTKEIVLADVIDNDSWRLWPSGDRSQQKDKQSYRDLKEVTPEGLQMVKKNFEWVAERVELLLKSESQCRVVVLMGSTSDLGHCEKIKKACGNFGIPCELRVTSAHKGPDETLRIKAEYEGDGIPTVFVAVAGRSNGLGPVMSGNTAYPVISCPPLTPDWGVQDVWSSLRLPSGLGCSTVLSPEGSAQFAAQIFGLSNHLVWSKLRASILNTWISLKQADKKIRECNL

Rab-like protein 3 = molecular target: T4, Rab-like protein 3 (Homo sapiens, UniProt Q5HYI8)
T4 sequence (Q5HYI8 whole entry): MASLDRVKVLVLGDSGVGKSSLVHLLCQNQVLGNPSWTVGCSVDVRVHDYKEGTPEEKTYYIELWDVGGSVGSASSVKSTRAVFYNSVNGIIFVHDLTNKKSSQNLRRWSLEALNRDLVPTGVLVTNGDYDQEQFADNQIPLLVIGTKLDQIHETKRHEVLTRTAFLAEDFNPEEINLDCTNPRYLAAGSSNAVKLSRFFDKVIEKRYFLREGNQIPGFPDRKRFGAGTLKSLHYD

Septin-9 = molecular target: T5, Septin-9 (Homo sapiens, UniProt Q9UHD8)
T5 sequence (Q9UHD8 whole entry): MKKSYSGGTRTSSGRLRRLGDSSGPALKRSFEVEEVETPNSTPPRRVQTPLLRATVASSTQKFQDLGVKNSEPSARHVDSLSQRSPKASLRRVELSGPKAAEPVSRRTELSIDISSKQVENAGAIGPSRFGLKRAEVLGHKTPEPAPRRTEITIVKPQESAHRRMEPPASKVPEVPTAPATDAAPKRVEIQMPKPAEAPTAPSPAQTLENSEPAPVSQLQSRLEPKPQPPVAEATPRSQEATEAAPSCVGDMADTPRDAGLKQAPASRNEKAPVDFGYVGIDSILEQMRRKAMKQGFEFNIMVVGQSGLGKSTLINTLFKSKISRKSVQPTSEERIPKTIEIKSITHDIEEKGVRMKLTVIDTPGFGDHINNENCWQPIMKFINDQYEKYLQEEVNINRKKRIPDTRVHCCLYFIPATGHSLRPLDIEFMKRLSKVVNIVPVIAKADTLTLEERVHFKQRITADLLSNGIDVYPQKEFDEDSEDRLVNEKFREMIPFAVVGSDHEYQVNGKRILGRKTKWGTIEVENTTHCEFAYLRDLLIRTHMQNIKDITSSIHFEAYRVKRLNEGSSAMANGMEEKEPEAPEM

[7] = molecular target: TRAF2 and NCK-interacting protein kinase (Homo sapiens, UniProt Q9UKE5)
Note: in the data inactive means no Kd found up to 30 µM.

Sequence of RAC-gamma serine/threonine-protein kinase (Q9Y243 whole entry): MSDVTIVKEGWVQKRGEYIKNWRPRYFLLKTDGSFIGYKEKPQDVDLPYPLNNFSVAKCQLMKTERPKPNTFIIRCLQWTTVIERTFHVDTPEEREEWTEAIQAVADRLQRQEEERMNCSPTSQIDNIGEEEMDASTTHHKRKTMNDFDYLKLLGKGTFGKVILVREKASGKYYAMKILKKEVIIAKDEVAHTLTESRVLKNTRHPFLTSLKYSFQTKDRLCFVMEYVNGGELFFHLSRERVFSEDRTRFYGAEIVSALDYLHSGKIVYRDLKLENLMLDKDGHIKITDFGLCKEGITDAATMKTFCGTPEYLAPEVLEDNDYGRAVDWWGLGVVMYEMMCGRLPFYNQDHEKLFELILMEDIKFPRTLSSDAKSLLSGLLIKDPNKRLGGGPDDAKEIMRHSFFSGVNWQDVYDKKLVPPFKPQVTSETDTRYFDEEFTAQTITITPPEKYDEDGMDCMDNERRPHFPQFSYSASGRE
Sequence of Casein kinase I isoform delta (P48730 whole entry, canonical isoform): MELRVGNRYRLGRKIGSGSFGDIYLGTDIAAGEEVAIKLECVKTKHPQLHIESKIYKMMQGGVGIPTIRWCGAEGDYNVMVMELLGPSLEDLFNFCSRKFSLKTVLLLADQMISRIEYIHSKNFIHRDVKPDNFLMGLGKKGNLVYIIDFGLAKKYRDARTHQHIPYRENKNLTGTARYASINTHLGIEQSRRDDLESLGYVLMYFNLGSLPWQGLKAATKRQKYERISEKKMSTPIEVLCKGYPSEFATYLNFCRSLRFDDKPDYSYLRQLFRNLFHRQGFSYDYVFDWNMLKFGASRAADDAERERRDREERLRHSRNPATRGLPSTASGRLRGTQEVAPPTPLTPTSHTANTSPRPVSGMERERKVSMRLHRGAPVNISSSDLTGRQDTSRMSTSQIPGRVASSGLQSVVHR
Sequence of Ephrin type-A receptor 2 (P29317 whole entry): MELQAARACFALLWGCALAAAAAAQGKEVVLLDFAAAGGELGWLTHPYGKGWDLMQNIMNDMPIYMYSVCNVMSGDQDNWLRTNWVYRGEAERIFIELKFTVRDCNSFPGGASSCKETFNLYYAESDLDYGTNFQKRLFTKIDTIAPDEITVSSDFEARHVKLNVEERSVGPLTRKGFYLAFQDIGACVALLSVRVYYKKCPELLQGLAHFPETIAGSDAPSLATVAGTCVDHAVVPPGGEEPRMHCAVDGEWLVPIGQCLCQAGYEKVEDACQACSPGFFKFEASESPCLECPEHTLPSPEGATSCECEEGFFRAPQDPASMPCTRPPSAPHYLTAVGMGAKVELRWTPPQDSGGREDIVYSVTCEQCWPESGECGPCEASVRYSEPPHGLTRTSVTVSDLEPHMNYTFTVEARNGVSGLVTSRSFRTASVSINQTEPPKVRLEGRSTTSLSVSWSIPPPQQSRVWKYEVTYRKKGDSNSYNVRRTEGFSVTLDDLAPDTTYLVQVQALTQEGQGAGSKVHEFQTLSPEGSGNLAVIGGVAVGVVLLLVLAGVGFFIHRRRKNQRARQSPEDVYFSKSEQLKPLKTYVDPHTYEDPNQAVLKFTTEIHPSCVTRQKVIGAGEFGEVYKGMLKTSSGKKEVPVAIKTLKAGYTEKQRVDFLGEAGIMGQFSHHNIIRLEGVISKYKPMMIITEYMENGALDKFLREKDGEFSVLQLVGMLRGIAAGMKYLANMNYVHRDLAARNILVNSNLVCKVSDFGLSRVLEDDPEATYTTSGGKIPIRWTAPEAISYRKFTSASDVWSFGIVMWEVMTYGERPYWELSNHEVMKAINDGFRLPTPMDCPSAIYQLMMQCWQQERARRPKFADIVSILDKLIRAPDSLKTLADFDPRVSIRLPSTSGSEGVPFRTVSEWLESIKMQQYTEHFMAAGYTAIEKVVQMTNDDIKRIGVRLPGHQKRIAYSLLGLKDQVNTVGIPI
Sequence of TRAF2 and NCK-interacting protein kinase (Q9UKE5 whole entry): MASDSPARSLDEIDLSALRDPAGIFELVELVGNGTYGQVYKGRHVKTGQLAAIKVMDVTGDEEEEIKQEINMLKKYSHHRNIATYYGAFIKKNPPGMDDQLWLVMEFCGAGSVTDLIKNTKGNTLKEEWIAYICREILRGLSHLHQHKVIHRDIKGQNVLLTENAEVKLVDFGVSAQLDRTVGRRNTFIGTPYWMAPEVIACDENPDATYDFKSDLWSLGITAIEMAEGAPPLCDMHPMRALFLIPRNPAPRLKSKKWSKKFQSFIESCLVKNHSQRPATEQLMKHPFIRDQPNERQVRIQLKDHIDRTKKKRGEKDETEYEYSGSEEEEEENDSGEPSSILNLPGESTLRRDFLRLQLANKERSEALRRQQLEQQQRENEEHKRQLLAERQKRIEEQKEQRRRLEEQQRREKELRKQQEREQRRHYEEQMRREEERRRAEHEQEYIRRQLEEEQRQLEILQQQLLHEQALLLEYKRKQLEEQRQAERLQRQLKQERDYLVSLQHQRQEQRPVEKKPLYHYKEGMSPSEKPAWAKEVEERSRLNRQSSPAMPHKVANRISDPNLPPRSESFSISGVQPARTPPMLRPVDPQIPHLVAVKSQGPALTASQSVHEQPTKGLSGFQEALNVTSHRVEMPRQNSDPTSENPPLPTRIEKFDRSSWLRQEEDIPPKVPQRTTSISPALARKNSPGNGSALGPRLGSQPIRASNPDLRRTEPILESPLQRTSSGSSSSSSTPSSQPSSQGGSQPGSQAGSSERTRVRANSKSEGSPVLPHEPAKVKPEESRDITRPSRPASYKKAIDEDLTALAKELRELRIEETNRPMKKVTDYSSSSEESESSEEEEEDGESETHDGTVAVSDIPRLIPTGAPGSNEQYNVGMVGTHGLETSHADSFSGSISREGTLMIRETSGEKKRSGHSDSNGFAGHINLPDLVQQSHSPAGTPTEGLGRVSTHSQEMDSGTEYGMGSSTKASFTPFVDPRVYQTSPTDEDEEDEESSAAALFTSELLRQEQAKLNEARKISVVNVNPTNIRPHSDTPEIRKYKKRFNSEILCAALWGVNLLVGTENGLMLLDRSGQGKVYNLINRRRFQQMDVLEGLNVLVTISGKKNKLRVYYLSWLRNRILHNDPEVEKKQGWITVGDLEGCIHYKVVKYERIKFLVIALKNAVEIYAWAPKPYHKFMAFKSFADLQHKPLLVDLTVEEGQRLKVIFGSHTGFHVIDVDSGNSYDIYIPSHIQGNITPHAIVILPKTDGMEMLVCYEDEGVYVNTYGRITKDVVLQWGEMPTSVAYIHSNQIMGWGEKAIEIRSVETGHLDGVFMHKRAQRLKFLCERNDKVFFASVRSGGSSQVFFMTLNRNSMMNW
Sequence of Tyrosine-protein kinase CSK (P41240 whole entry, canonical isoform): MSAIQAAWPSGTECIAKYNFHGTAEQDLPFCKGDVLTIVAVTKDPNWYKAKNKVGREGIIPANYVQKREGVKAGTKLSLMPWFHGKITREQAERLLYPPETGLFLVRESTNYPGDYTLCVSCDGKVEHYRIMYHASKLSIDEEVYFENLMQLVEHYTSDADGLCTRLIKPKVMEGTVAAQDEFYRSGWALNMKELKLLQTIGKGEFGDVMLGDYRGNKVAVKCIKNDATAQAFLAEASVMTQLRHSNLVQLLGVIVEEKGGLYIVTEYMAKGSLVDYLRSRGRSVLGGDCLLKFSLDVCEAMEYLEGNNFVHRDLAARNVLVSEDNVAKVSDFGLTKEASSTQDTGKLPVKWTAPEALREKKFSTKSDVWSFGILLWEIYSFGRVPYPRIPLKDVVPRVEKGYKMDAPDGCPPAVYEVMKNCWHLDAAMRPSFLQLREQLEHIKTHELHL

SMILES	Kd (Activin receptor type-1B)	Kd [1]	Kd [2]	Kd [3]	Kd (Ephrin type-A receptor 2)	Kd [4]	Kd [5]	Kd [6]	Kd (Rab-like protein 3)	Kd (Septin-9)	Kd [7]
CCc1cnn2c(NCc3ccc[n+]([O-])c3)cc(N3CCCC[C@H]3CCO)nc12 [DINACICLIB]	> 30 µM (inactive)	> 30 µM (inactive)	> 30 µM (inactive)	> 30 µM (inactive)	> 30 µM (inactive)	> 30 µM (inactive)	> 30 µM (inactive)	> 30 µM (inactive)	> 30 µM (inactive)	> 30 µM (inactive)	> 30 µM (inactive)
CC[C@H](Nc1ncnc2[nH]cnc12)c1nc2cccc(F)c2c(=O)n1-c1ccccc1 [IDELALISIB]	> 30 µM (inactive)	> 30 µM (inactive)	> 30 µM (inactive)	> 30 µM (inactive)	> 30 µM (inactive)	> 30 µM (inactive)	> 30 µM (inactive)	> 30 µM (inactive)	> 30 µM (inactive)	> 30 µM (inactive)	> 30 µM (inactive)
CN(C)C(=O)c1cc2cnc(Nc3ccc(N4CCNCC4)cn3)nc2n1C1CCCC1 [RIBOCICLIB]	> 30 µM (inactive)	> 30 µM (inactive)	> 30 µM (inactive)	> 30 µM (inactive)	> 30 µM (inactive)	> 30 µM (inactive)	> 30 µM (inactive)	> 30 µM (inactive)	> 30 µM (inactive)	> 30 µM (inactive)	> 30 µM (inactive)
C[C@@H]1CN(Cc2ccc(F)cc2)[C@@H](C)CN1C(=O)c1cc2c(C(=O)C(=O)N(C)C)cn(C)c2cc1Cl [TALMAPIMOD]	> 30 µM (inactive)	> 30 µM (inactive)	> 30 µM (inactive)	> 30 µM (inactive)	> 30 µM (inactive)	> 30 µM (inactive)	> 30 µM (inactive)	> 30 µM (inactive)	> 30 µM (inactive)	> 30 µM (inactive)	> 30 µM (inactive)
O=C1NC(=O)/C(=C/c2ccc3nccc(-c4ccncc4)c3c2)S1 [GSK-1059615]	> 30 µM (inactive)	> 30 µM (inactive)	> 30 µM (inactive)	21.5 µM (active)	> 30 µM (inactive)	> 30 µM (inactive)	> 30 µM (inactive)	> 30 µM (inactive)	> 30 µM (inactive)	> 30 µM (inactive)	> 30 µM (inactive)
Cn1cc(-c2ccc3nnc(C(F)(F)c4ccc5ncccc5c4)n3n2)cn1 [JNJ-38877605]	> 30 µM (inactive)	> 30 µM (inactive)	> 30 µM (inactive)	> 30 µM (inactive)	> 30 µM (inactive)	> 30 µM (inactive)	> 30 µM (inactive)	> 30 µM (inactive)	> 30 µM (inactive)	> 30 µM (inactive)	> 30 µM (inactive)
CC(C)Nc1cc(-c2c[nH]c(C(=O)N[C@H](CO)c3cccc(Cl)c3)c2)c(Cl)cn1 [ULIXERTINIB]	> 30 µM (inactive)	> 30 µM (inactive)	> 30 µM (inactive)	> 30 µM (inactive)	> 30 µM (inactive)	> 30 µM (inactive)	> 30 µM (inactive)	> 30 µM (inactive)	> 30 µM (inactive)	> 30 µM (inactive)	> 30 µM (inactive)
CCn1c(=O)c(-c2cc[nH]n2)cc2c(C)nc(N)nc21 [VOXTALISIB]	> 30 µM (inactive)	> 30 µM (inactive)	> 30 µM (inactive)	> 30 µM (inactive)	> 30 µM (inactive)	> 30 µM (inactive)	> 30 µM (inactive)	> 30 µM (inactive)		> 30 µM (inactive)	> 30 µM (inactive)
CN1CCC(COc2cnc(-c3cccc(Cn4nc(-c5cccc(C#N)c5)ccc4=O)c3)nc2)CC1 [TEPOTINIB]	> 30 µM (inactive)	> 30 µM (inactive)	> 30 µM (inactive)	> 30 µM (inactive)	> 30 µM (inactive)	> 30 µM (inactive)	> 30 µM (inactive)	> 30 µM (inactive)		> 30 µM (inactive)	> 30 µM (inactive)
